From patent US20230322767A1, “ARYL SUBSTITUTED PYRROLO-PYRIDINONES AND THERAPEUTIC USES THEREOF” (Bayer Aktiengesellschaft, priority 2020, published 2023)

Key:
[1] = target: CSNK1A1 (Homo sapiens (Human), UniProt P48729); experiment: CSNK1A1 Assay 2 (ADP-Glo, 1 μM ATP); assay type: biochemical; settings: median, read-out: CSNK1A1 Assay 2 IC50 [mol/l] (median)
Method: CSNK1A1-inhibitory activity of compounds of the present invention in presence of 1 μM adenosine-tri-phosphate (ATP) was quantified employing the CSNK1A1 assay as described in the following paragraphs. In essence, the enzyme activity is measured by quantification of the adenosine-di-phosphate (ADP), which is generated as a co-product of the enzyme reaction, via the “ADP-Glo™ Kinase Assay” kit from the company Promega. This detection system works as follows: In a first step the ATP not consumed in the kinase reaction is quantitatively converted to cAMP employing an adenylate cyclase (“ADP-Glo-reagent”), then the adenylate cyclase is stopped and the ADP generated in the kinase reaction converted to ATP which generates in a luciferase-based reaction a glow-luminescence signal (“Kinase Detection Reagent”).
As substrate for the kinase reaction the biotinylated peptide biotin-Ahx-KRRRAL-pS-VASLPGL (C-terminus in amide form) was used which can be purchased e.g. from the company Biosyntan (Berlin-Buch, Germany).
For the assay 50 nl of a 100 fold concentrated solution of the test compound in DMSO was pipetted into a white 1536-well microtiter plate (Greiner Bio-One, Frickenhausen, Germany), 2 μL of a solution of CSNK1A1 in aqueous assay buffer [50 mM HEPES pH 7.5, 10% (v/v) glycerol, 10 mM MgCl2, 50 mM NaCl, 1 mM dithiothreitol, 0.01% (w/v) bovine serum albumin, 0.01% (v/v) Triton X-100] were added and the mixture was incubated for 15 min at 22° C. to allow pre-binding of the test compounds to the enzyme before the start of the kinase reaction. […] The concentration of CSNK1A1 was adjusted depending of the activity of the enzyme lot and was chosen appropriate to have the assay in the linear range, a typical concentrations are about 0.0375 ng/μL. The reaction was stopped by the addition of 2.5 μL of “ADP-Glo-reagent” (1:1.5 fold diluted with water) and the resulting mixture was incubated at 22° C. for 1 h to convert the ATP not consumed in the kinase reaction completely […]. Subsequently 2.5 μL of the “kinase detection reagent” (1.2 fold more concentrated than recommended by the producer) were added, the resulting mixture was incubated at 22° C. for 1 h and then the luminescence measured with a suitable measurement instrument (e.g. Viewlux™ from Perkin-Elmer). The amount of emitted light was taken as a measure for the amount of ADP generated and thereby for the activity of the CSNK1A1.

[2] = target: CSNK1D (Homo sapiens (Human), UniProt P48730); experiment: CSNK1D Assay (ADP-Glo, 1 μM ATP); assay type: biochemical; settings: median, read-out: CSNK1D IC50 [mol/l] (median)
Method: CSNK1D-inhibitory activity of compounds of the present invention in presence of 1 μM adenosine-tri-phosphate (ATP) was quantified employing the CSNK1 D assay as described in the following paragraphs. In essence, the enzyme activity is measured by quantification of the adenosine-di-phosphate (ADP), which is generated as a co-product of the enzyme reaction, via the “ADP-Glo™ Kinase Assay” kit from the company Promega. This detection system works as follows: In a first step the ATP not consumed in the kinase reaction is quantitatively converted to cAMP employing an adenylate cyclase (“ADP-Glo-reagent”), then the adenylate cyclase is stopped and the ADP generated in the kinase reaction converted to ATP which generates in a luciferase-based reaction a glow-luminescence signal (“Kinase Detection Reagent”).
As substrate for the kinase reaction the biotinylated peptide Btn-Ahx-[…] (C-terminus in amide form) was used which can be purchased e.g. from the company Biosyntan (Berlin-Buch, Germany).
For the assay 50 nl of a 100 fold concentrated solution of the test compound in DMSO was pipetted into a white 1536-well microtiter plate (Greiner Bio-One, Frickenhausen, Germany), 2 μL of a solution of CSNK1D in aqueous assay buffer [50 mM HEPES pH 7.5, 10% (v/v) glycerol, 10 mM MgCl2, 50 mM NaCl, 1 mM dithiothreitol, 0.01% (w/v) bovine serum albumin, 0.01% (v/v) Triton X-100] were added and the mixture was incubated for 15 min at 22° C. to allow pre-binding of the test compounds to the enzyme before the start of the kinase reaction. […] The concentration of CSNK1D was adjusted depending of the activity of the enzyme lot and was chosen appropriate to have the assay in the linear range, a typical concentration is about 0.5 ng/μL. The reaction was stopped by the addition of 2.5 μL of “ADP-Glo-reagent” (1:1.5 fold diluted with water) and the resulting mixture was incubated at 22° C. for 1 h to convert the ATP not consumed in the kinase reaction completely […]. Subsequently 2.5 μL of the “kinase detection reagent” (1.2 fold more concentrated than recommended by the producer) were added, the resulting mixture was incubated at 22° C. for 1 h and then the luminescence measured with a suitable measurement instrument (e.g. Viewlux™ from Perkin-Elmer). The amount of emitted light was taken as a measure for the amount of ADP generated and thereby for the activity of the CSNK1D.

Chain of CSNK1D (P48730 whole entry): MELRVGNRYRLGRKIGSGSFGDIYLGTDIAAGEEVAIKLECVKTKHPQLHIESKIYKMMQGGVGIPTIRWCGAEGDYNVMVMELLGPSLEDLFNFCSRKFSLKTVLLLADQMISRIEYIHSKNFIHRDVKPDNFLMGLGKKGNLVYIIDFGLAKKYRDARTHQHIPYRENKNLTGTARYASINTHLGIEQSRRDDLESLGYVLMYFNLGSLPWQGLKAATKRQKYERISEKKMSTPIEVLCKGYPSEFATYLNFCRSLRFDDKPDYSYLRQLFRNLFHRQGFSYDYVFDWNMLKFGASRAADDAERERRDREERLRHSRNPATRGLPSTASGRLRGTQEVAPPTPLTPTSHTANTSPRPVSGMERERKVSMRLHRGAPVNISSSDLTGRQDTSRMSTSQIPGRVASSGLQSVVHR
Chain of CSNK1A1 (P48729 whole entry): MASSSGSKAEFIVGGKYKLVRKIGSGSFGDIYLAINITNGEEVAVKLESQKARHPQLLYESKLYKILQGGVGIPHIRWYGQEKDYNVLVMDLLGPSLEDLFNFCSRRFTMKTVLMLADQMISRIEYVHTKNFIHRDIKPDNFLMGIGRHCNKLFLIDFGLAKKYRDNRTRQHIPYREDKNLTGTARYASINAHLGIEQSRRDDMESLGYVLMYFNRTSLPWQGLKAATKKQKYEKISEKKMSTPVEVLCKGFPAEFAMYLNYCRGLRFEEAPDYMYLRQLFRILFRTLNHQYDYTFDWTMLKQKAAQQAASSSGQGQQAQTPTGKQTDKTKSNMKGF

| Structure (SMILES) | IC50 [1] [nM] | IC50 [2] [nM] |
| --- | --- | --- |
| CC1(C)CNC(=O)c2c1[nH]c(-c1ccnc(NC(=O)C(CC(F)F)c3ccc(F)cc3)c1)c2-c1ccccc1 (racemic) [Example 43, N-[4-(7,7-dimethyl-4-oxo-3-phenyl-4,5,6,7-tetrahydro-1H-pyrrolo[3,2-c]pyridin-2-yl)pyridin-2-yl]-4,4-difluoro-2-(4-fluorophenyl)butanamide] | 2.6 | 2.7 |
| CC(C(=O)Nc1cc(-c2[nH]c3c(c2-c2ccccc2)C(=O)NCC3(C)C)ccn1)c1ccc(F)cc1 (racemic) [Example 46, N-[4-(7,7-dimethyl-4-oxo-3-phenyl-4,5,6,7-tetrahydro-1H-pyrrolo[3,2-c]pyridin-2-yl)pyridin-2-yl]-2-(4-fluorophenyl)propanamide] | 2.7 | 3.3 |
| CN1C(=O)c2c([nH]c(-c3ccnc(NC(=O)C(CC(F)F)c4ccc(F)cc4)c3)c2-c2ccccc2)CC12CCC2 (racemic) [Example 49, 4,4-difluoro-2-(4-fluorophenyl)-N-[4-(5′-methyl-4′-oxo-3′-phenyl-1′,4′,5′,7′-tetrahydrospiro[cyclobutane-1,6′-pyrrolo[3,2-c]pyridin]-2′-yl)pyridin-2-yl]butanamide] | 4.6 | 4.5 |
| CC(C(=O)Nc1cc(-c2[nH]c3c(c2-c2ccccc2)C(=O)N(C)C2(CCC2)C3)ccn1)c1ccc(F)cc1 (racemic) [Example 52, 2-(4-fluorophenyl)-N-[4-(5′-methyl-4′-oxo-3′-phenyl-1′,4′,5′,7′-tetrahydrospiro[cyclobutane-1,6′-pyrrolo[3,2-c]pyridin]-2′-yl)pyridin-2-yl]propanamide] | 3.4 | 3.8 |
| CN1CC(CC2CC2)c2[nH]c(-c3ccnc(NC(=O)Cc4ccc(F)cc4)c3)c(-c3ccccc3)c2C1=O (racemic) [Example 55, N-{4-[7-(cyclopropylmethyl)-5-methyl-4-oxo-3-phenyl-4,5,6,7-tetrahydro-1H-pyrrolo[3,2-c]pyridin-2-yl]pyridin-2-yl}-2-(4-fluorophenyl)acetamide] | 2 | 2.2 |
| CC(C(=O)Nc1cc(-c2[nH]c3c(CC4CC4)cn(C)c(=O)c3c2-c2ccccc2)ccn1)c1ccc(F)cc1 (racemic) [Example 58, N-{4-[7-(cyclopropylmethyl)-5-methyl-4-oxo-3-phenyl-4,5-dihydro-1H-pyrrolo[3,2-c]pyridin-2-yl]pyridin-2-yl}-2-(4-fluorophenyl)propanamide] | 5.2 | 4 |
| Cn1cc(CC2CC2)c2[nH]c(-c3ccnc(NC(=O)C(CC(F)F)c4ccc(F)cc4)c3)c(-c3ccccc3)c2c1=O (racemic) [Example 60, N-{4-[7-(cyclopropylmethyl)-5-methyl-4-oxo-3-phenyl-4,5-dihydro-1H-pyrrolo[3,2-c]pyridin-2-yl]pyridin-2-yl}-4,4-difluoro-2-(4-fluorophenyl)butanamide] | 15 | 9.5 |
| CN1CC(CC2CC2)c2[nH]c(-c3ccnc(NC(=O)Cc4ccc(F)cc4)c3)c(-c3ccc(F)cc3)c2C1=O (racemic) [Example 61, N-{4-[7-(cyclopropylmethyl)-3-(4-fluorophenyl)-5-methyl-4-oxo-4,5,6,7-tetrahydro-1H-pyrrolo[3,2-c]pyridin-2-yl]pyridin-2-yl}-2-(4-fluorophenyl)acetamide] | 2 | 1.8 |
| CC(C(=O)Nc1cc(-c2[nH]c3c(CC4CC4)cn(C)c(=O)c3c2-c2ccc(F)cc2)ccn1)c1ccc(F)cc1 (racemic) [Example 63, N-{4-[7-(cyclopropylmethyl)-3-(4-fluorophenyl)-5-methyl-4-oxo-4,5-dihydro-1H-pyrrolo[3,2-c]pyridin-2-yl]pyridin-2-yl}-2-(4-fluorophenyl)propanamide] | 12 | 8 |
| CN1CCc2[nH]c(-c3ccnc(NC(=O)C(CC(F)F)c4ccc(F)cc4)c3)c(-c3ccccc3)c2C1=O (single isomer, unassigned) [Example 3, 4,4-difluoro-2-(4-fluorophenyl)-N-[4-(5-methyl-4-oxo-3-phenyl-4,5,6,7-tetrahydro-1H-pyrrolo[3,2-c]pyridin-2-yl)pyridin-2-yl]butanamide] | 4.7 | 5.9 |
| CN1CCc2[nH]c(-c3ccnc(NC(=O)C(CC(F)F)c4ccc(F)cc4)c3)c(-c3ccccc3)c2C1=O (single isomer, unassigned) [Example 4, 4,4-difluoro-2-(4-fluorophenyl)-N-[4-(5-methyl-4-oxo-3-phenyl-4,5,6,7-tetrahydro-1H-pyrrolo[3,2-c]pyridin-2-yl)pyridin-2-yl]butanamide] | 1.1 | 2.3 |
| CN1CCc2[nH]c(-c3ccnc(NC(=O)C(CC(F)F)c4ccc(F)cc4)c3)c(-c3cccnc3)c2C1=O (single isomer, unassigned) [Example 10, 4,4-difluoro-2-(4-fluorophenyl)-N-{4-[5-methyl-4-oxo-3-(pyridin-3-yl)-4,5,6,7-tetrahydro-1H-pyrrolo[3,2-c]pyridin-2-yl]pyridin-2-yl}butanamide] | 110 | 64 |
| CN1CCc2[nH]c(-c3ccnc(NC(=O)C(CC(F)F)c4ccc(F)cc4)c3)c(-c3cccnc3)c2C1=O (single isomer, unassigned) [Example 11, 4,4-difluoro-2-(4-fluorophenyl)-N-{4-[5-methyl-4-oxo-3-(pyridin-3-yl)-4,5,6,7-tetrahydro-1H-pyrrolo[3,2-c]pyridin-2-yl]pyridin-2-yl}butanamide] | 4.3 | 4.7 |
| Cn1cc(CC(F)(F)F)c2[nH]c(-c3ccnc(NC(=O)C(CC(F)F)c4ccc(F)cc4)c3)c(-c3ccc(F)cc3)c2c1=O (single isomer, unassigned) [Example 27, 4,4-difluoro-2-(4-fluorophenyl)-N-{4-[3-(4-fluorophenyl)-5-methyl-4-oxo-7-(2,2,2-trifluoroethyl)-4,5-dihydro-1H-pyrrolo[3,2-c]pyridin-2-yl]pyridin-2-yl}butanamide] | 12 | 5.8 |
| Cn1cc(CC(F)(F)F)c2[nH]c(-c3ccnc(NC(=O)C(CC(F)F)c4ccc(F)cc4)c3)c(-c3ccc(F)cc3)c2c1=O (single isomer, unassigned) [Example 28, 4,4-difluoro-2-(4-fluorophenyl)-N-{4-[3-(4-fluorophenyl)-5-methyl-4-oxo-7-(2,2,2-trifluoroethyl)-4,5-dihydro-1H-pyrrolo[3,2-c]pyridin-2-yl]pyridin-2-yl}butanamide] | 6.1 | 5 |
| CC1(C)CNC(=O)c2c1[nH]c(-c1ccnc(NC(=O)C(CC(F)F)c3ccc(F)cc3)c1)c2-c1ccccc1 (single isomer, unassigned) [Example 44, N-[4-(7,7-dimethyl-4-oxo-3-phenyl-4,5,6,7-tetrahydro-1H-pyrrolo[3,2-c]pyridin-2-yl)pyridin-2-yl]-4,4-difluoro-2-(4-fluorophenyl)butanamide] | 11 | 12 |
